# Measured values from PubChem BioAssay AID1552 (Sanford-Burnham Center for Chemical Genomics, 2009).
# The source made the active and inactive calls. No rule for the calls is given here.
# Molecular target: Ubiquitin-conjugating enzyme E2 N (Homo sapiens) (UniProt P61088)
# Assay: UBE2N binders by NMR, biophysical, purified protein (AID 1552)
# Conditions: NMR binding to purified UBE2N
# Sequence of Ubiquitin-conjugating enzyme E2 N (Homo sapiens) (P61088 whole entry, looked up): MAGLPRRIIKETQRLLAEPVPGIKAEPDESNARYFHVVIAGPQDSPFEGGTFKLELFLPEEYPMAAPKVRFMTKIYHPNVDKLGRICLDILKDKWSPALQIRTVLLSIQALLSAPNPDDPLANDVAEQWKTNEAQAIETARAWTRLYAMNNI
row,Compound,Kd
1,O=c1c2ccccc2nc2n1CCC2O (centres undefined),> 4 mM (inactive)
2,CN1C2CCC1CC(OC(=O)C(CO)c1ccccc1)C2 (centres undefined),> 4 mM (inactive)
3,Cc1nnc(NC(=O)C(C)Sc2nncn2C)s1 (centres undefined),> 4 mM (inactive)
4,O=C(NCc1cccs1)c1ccncc1,> 4 mM (inactive)
5,c1ccc(-c2nnc3sc(-c4ccncc4)nn23)cc1,> 4 mM (inactive)
6,CN(C)C1CCS(=O)(=O)C1 (centres undefined),> 4 mM (inactive)
7,NC(CSCSCC(N)C(=O)O)C(=O)O (centres undefined),> 4 mM (inactive)
8,Nc1nc2ccc(C(=O)O)cc2s1,> 4 mM (inactive)
9,CC(=O)NC1=C(N(C)C)C(=O)c2ccccc2C1=O,> 4 mM (inactive)
10,CSc1ccccc1NC(=O)c1ccc(C)o1,> 4 mM (inactive)
11,C=C1C2CC[C@@]3(C)[C@H](c4ccoc4)OC(=O)C[C@]13O[C@H]1CC(=O)C(C)(C)[C@H](C(OC(C)=O)C(=O)OC)[C@@]21C (some centres undefined),> 4 mM (inactive)
12,CN1CC(=O)N=C1N,> 4 mM (inactive)
13,Cc1n[nH]c(C)c1NC(=O)c1cccc(F)c1,> 4 mM (inactive)
14,NC(=O)CN=Cc1c(O)[nH]c2ccccc12,> 4 mM (inactive)
15,C[C@@H]1CC[C@@]2(NC1)O[C@H]1C[C@H]3C4CC=C5C[C@@H](O)CC[C@]5(C)C4CC[C@]3(C)C1[C@@H]2C (some centres undefined),> 4 mM (inactive)
16,Cn1c([O-])c([N+](C)(C)C)c(=O)n(C)c1=O,> 4 mM (inactive)
17,CCCCn1c(S(=O)(=O)O)nc2ccccc21,> 4 mM (inactive)
18,NC(=O)CSCc1ccc(Br)cc1,> 4 mM (inactive)
19,Nc1ccccc1N=C1CNC(=O)C1,> 4 mM (inactive)
20,O=C(NCN1CCOCC1)c1cnccn1,> 4 mM (inactive)
21,CCSc1n[nH]c(=O)[nH]c1=O,> 4 mM (inactive)
22,N[C@@H](C(=O)O)[C@@H](O)[C@H](O)[C@H](O)CO,> 4 mM (inactive)
23,Cn1cnc2c(=O)[nH]cc([N+](=O)[O-])c21,> 4 mM (inactive)

row,Compound,Kd
1,CNS(=O)(=O)c1cccs1,> 4 mM (inactive)
2,Cc1cc(C)c(C#N)c(N2CCCC2)n1,> 4 mM (inactive)
3,CCc1noc(C)c1C(=O)N1CCOCC1,> 4 mM (inactive)
4,c1cncc(C2CCCCN2)c1 (centres undefined),> 4 mM (inactive)
5,O=c1sc2ccccc2n1CN1CCOCC1,> 4 mM (inactive)
6,CC(C)(OC(=O)c1ccccc1)[C@@H]1Cc2cc3ccc(=O)oc3cc2O1,> 4 mM (inactive)
7,CC(C)n1c(-c2ccncc2)n[nH]c1=S,> 4 mM (inactive)
8,CC(=O)O[C@@H]1CC2C(C)(C)C(=O)C=C[C@]2(C)C2CC[C@@]3(C)[C@H](c4ccoc4)OC(=O)[C@H]4O[C@]43[C@@]21C (some centres undefined),> 4 mM (inactive)
9,COCC(=O)Nc1ccc(C)c(Cl)c1,> 4 mM (inactive)
10,CC(C)=CC1C(C(=O)O)C1(C)C (centres undefined),> 4 mM (inactive)
11,S=C(c1ccc(N2CCOCC2)cc1)N1CCCCC1,> 4 mM (inactive)
12,CC1=C/C(=C\c2c(O)[nH]c(=O)[nH]c2=O)C(C)=N1,> 4 mM (inactive)
13,COc1ccc(-c2nc3nc(C)cc(C)n3n2)cc1,> 4 mM (inactive)
14,CC(=O)Oc1c(-c2ccccc2)oc2c(CC=C(C)C)c3c(c(OC(C)=O)c2c1=O)C=CC(C)(C)O3,> 4 mM (inactive)
15,OC1CCN(Cc2ccc[nH]2)CC1,> 4 mM (inactive)
16,COc1ccc(Cc2nccc3cc(OC)c(OC)cc23)cc1OC,> 4 mM (inactive)
17,CC(C)C(C)/C=C/C(C)[C@H]1CCC2C3=CCC4CC(=O)CC[C@]4(C)C3CC[C@@]21C (some centres undefined),> 4 mM (inactive)
18,Nc1ccc2c(c1)OCO2,> 4 mM (inactive)
19,CCN1CCn2c1nc(N1CCOCC1)nc2=O,> 4 mM (inactive)
20,O=C(CO)N/N=C/c1ccccc1F,> 4 mM (inactive)
21,O=C(NC1=NCCS1)c1cccc(F)c1,> 4 mM (inactive)
22,Cc1cccc(NC(=O)CN2C(=O)CNC2=O)c1,> 4 mM (inactive)
23,c1ccc(CCN2CCN(CCc3ccccn3)CC2)nc1,> 4 mM (inactive)

row,Compound,Kd
1,Cc1nnc(SCC(=O)N2CCCCC2)s1,> 4 mM (inactive)
2,OCC1COc2ccccc2O1 (centres undefined),> 4 mM (inactive)
3,CCOC(=O)CC1Sc2ccccc2NC1=O (centres undefined),> 4 mM (inactive)
4,Cc1c(N=CN(C)C)c(=O)n(-c2ccccc2)n1C,> 4 mM (inactive)
5,Nc1nc(-c2nc3ccccc3[nH]2)cs1,> 4 mM (inactive)
6,CC(C)=CCC1=C(O)c2ccccc2C(=O)C1=O,> 4 mM (inactive)
7,Cn1c(=O)n(CC(=O)Nc2cccnc2)c2ccccc21,> 4 mM (inactive)
8,Cc1noc(C)c1CSc1nc2ccccc2[nH]1,> 4 mM (inactive)
9,Cc1cc(C(=O)NCc2cccs2)c(C)o1,> 4 mM (inactive)
10,CN1CCC[C@H]1c1cccnc1,> 4 mM (inactive)
11,O=C1CCC(=O)N1c1ccc(F)cc1,> 4 mM (inactive)
12,NS(=O)(=O)c1ccc2c3c(cccc13)C(=O)N2,> 4 mM (inactive)
13,NC(C(=O)O)C(O)c1ccccc1 (centres undefined),> 4 mM (inactive)
14,C[n+]1ccc(C(=O)[O-])cc1,> 4 mM (inactive)
15,OCc1cccc2c1OCO2,> 4 mM (inactive)
16,CC1CCC(N2CCN(c3ncccn3)CC2)CC1 (centres undefined),> 4 mM (inactive)
17,Cc1n[nH]c(C)c1CC(=O)O,> 4 mM (inactive)
18,COc1cc(-c2coc3cc(OCc4ccccc4)c(OC)c(O)c3c2=O)cc(O)c1OC,> 4 mM (inactive)
19,Cc1nnc(SCc2ccccc2)[nH]c1=O,> 4 mM (inactive)
20,O=c1/c(=C\c2cccnc2)sc2nc3ccccc3n12,> 4 mM (inactive)
21,CC(=O)O[C@H]1C[C@@H](OC(C)=O)C(C)(C)C2C[C@@H](OC(C)=O)[C@]3(C)C([C@H](OC(C)=O)C[C@@]4(C)[C@H](c5ccoc5)OC(=O)[C@H]5O[C@]543)[C@]21C (some centres undefined),> 4 mM (inactive)
22,COc1ccccc1NC(=O)c1cc[n+]([O-])cc1,> 4 mM (inactive)
23,O=C1Cn2c(nc3ccccc32)N1c1ccccc1F,> 4 mM (inactive)

row,Compound,Kd
1,CCOC(=O)CNc1ncnc2c1nnn2CC,> 4 mM (inactive)
2,COc1ccc(-c2oc3c(CC=C(C)C)c(O[C@@H]4O[C@H](CO)[C@@H](O)[C@H](O)[C@H]4O)cc(O)c3c(=O)c2O[C@@H]2O[C@@H](C)[C@H](O)[C@@H](O)[C@H]2O)cc1,> 4 mM (inactive)
3,NC1=NC(=O)CC(C(=O)Nc2ccccc2)S1 (centres undefined),> 4 mM (inactive)
4,Cc1cc(C)n(S(=O)(=O)c2ccc(C(C)(C)C)cc2)n1,> 4 mM (inactive)
5,O=S1(=O)CCC2CC=CCC21 (centres undefined),> 4 mM (inactive)
6,Cc1c(C(=O)O)cnn1-c1ccccc1,> 4 mM (inactive)
7,COCCn1c(N)nc2c1c(=O)[nH]c(=O)n2C,> 4 mM (inactive)
8,N#CC(O[C@@H]1O[C@H](CO[C@@H]2O[C@H](CO)[C@@H](O)[C@H](O)[C@H]2O)[C@@H](O)[C@H](O)[C@H]1O)c1ccccc1 (some centres undefined),> 4 mM (inactive)
9,COC(=O)[C@]1(C)CCC[C@]2(C)c3ccc(C(C)C)cc3C(=O)CC12 (some centres undefined),> 4 mM (inactive)
10,COc1cc([C@@H]2c3cc4c(cc3[C@H](OC(C)=O)[C@H]3COC(=O)[C@H]23)OCO4)cc(OC)c1OC,> 4 mM (inactive)
11,NC(=O)c1ccc(C(N)=O)cc1,> 4 mM (inactive)
12,Cc1cc(=O)n2ncn(Cc3ccccc3)c2n1,> 4 mM (inactive)
13,O=C(O)c1cccnc1N1CCCC1,> 4 mM (inactive)
14,OC1CNCc2cc3c(cc21)OCCO3 (centres undefined),> 4 mM (inactive)
15,CNC(=S)Nc1ccc(C(=O)O)cc1,> 4 mM (inactive)
16,CC1(C)Cc2nc3n[nH]c(N)c3cc2CO1,> 4 mM (inactive)
17,Nc1c2c3c(sc2nc(=O)n1N)CCCC3,> 4 mM (inactive)
18,O=c1cc(-c2ccccc2)oc2cc(O)c(O)c(O)c12,> 4 mM (inactive)
19,CNC(C)[C@H](O)c1ccccc1 (some centres undefined),> 4 mM (inactive)
20,Cc1cc(-c2ccc(Cl)cc2)n2nc(N)nc2n1,> 4 mM (inactive)
21,Fc1ccc(NC2=NCCS2)cc1Cl,> 4 mM (inactive)
22,c1coc(CNc2ncnc3nc[nH]c23)c1,> 4 mM (inactive)
23,Cc1ccc(C(=O)Nn2cnnc2)c(Cl)c1,> 4 mM (inactive)

row,Compound,Kd
1,CC(=O)NC(=S)Nc1ccc(N(C)C(C)=O)cc1,> 4 mM (inactive)
2,COc1cc(C(=O)O[C@H]2CC[C@@]3(C)[C@@H]4CC[C@H]5[C@]6(O)C[C@H](O)[C@@]7(O)[C@@H](CN8C[C@@H](C)CC[C@H]8[C@@]7(C)O)[C@]6(O)C[C@@]53OC24O)cc(OC)c1OC,> 4 mM (inactive)
3,Cc1cc(=O)[nH]c(NCC(=O)O)n1,> 4 mM (inactive)
4,NCc1ccc2occc2c1,> 4 mM (inactive)
5,CC(=O)O[C@H]1CC[C@@]2(C)C(=CCC3C2CC[C@@]2(C)C3CC[C@@H]2C(C)CCCC(C)C)C1 (some centres undefined),> 4 mM (inactive)
6,O=Cc1c(N2CCOCC2)nc2ccccn2c1=O,> 4 mM (inactive)
7,COc1ccc(-c2cc(=O)c3c(OC)c(OC)c(OC)c(OC)c3o2)cc1OC,> 4 mM (inactive)
8,Nc1nc2ccc(S(N)(=O)=O)cc2s1,> 4 mM (inactive)
9,CC(=O)N1CC2(C)CN(C(C)=O)CC(C)(C1)C2,> 4 mM (inactive)
10,Cn1c(=O)c2c([nH]c(=O)n2C)n(C)c1=O,> 4 mM (inactive)
11,O=C(Nc1ccc2c(c1)OCO2)c1cccc(F)c1,> 4 mM (inactive)
12,O=C(c1ccc(Cl)s1)N1CCOCC1,> 4 mM (inactive)
13,O=c1ccnc(Nc2ccccc2O)[nH]1,> 4 mM (inactive)
14,CC(CC(O)C1OC1(C)C)[C@@H]1CCC2(C)C3=CCC4C(C)(C)C(=O)CCC4(C)C3CC[C@@]12C (some centres undefined),> 4 mM (inactive)
15,Cc1c(CCO)c(=O)n2c([nH]c3ccccc32)c1C#N,> 4 mM (inactive)
16,Cn1cnnc1SCC(=O)Nc1nccs1,> 4 mM (inactive)
17,CCOC(=O)c1[nH]c(C)cc1C,> 4 mM (inactive)
18,O=C(O)C1Cc2ccccc2N1 (centres undefined),> 4 mM (inactive)
19,CC(C)=CCOc1c2occc2cc2ccc(=O)oc12,> 4 mM (inactive)
20,COc1ccccc1C(=O)NC1CCN(C)CC1,> 4 mM (inactive)
21,COC(=O)c1c[nH]c2ccccc12,> 4 mM (inactive)
22,O=C(O)c1cc2ccccc2o1,> 4 mM (inactive)
